{
  "source": "patent US20250195530A1",
  "about": "“POLQ INHIBITORS” (ASTRAZENECA AB, priority 2022, published 2025)",
  "test_system": "DLD-1 BRCA2−/− cells",
  "assay": "Homologous recombination synthetic lethal inhibition of proliferation, DLD-1 BRCA2-/- (Cell Titre Glo 3D)",
  "format": "cell-based",
  "details": "for IC50: Homo sapiens",
  "how_it_was_run": "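DLD-1 BRCA2−/− and parental DLD-1 cells exposed to 10-point dose range (10 μM to 0.51 nM, 3-fold) in RPMI/10% FBS at 37 °C, with medium and compound replenished on day 6. Viability by Cell Titre Glo 3D luminescence at day 7 (DLD-1) or day 12 (BRCA2−/−); IC50 as concentration halving maximum signal.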",
  "key": {"[1]": {"details": "DLD-1, first proliferation column (c5), DLD-1 BRCA2-/-, read-out: POLQ PD Prolif Lumin (converted)"}, "[2]": {"details": "DLD-1, first proliferation column, DLD-1 BRCA2-/-, read-out: POLQ PD Prolif Lumin (converted)"}, "[3]": {"details": "DLD-1, DLD-1 BRCA2 −/− cells, mean, read-out: POLQ PD Prolif Lumin BRCA2 −/− mean pIC50 (converted)"}, "[4]": {"details": "DLD-1, first proliferation column (c5), taken as DLD-1 BRCA2-/-, read-out: POLQ PD Prolif Lumin (converted)"}, "[5]": {"details": "DLD-1, proliferation, luminescence, taken as DLD-1 BRCA2-/-, read-out: POLQ PD Prolif Lumin (converted)"}, "[6]": {"details": "DLD-1, 288 h, DLD-1 BRCA2−/− cells, 12 days, read-out: POLQ PD Prolif Lumin BRCA2 −/− mean pIC50 (converted)"}},
  "note": "Read-outs that look alike come from different tables or passages of the source.",
  "data": [
    {"smiles": "Cc1c(Cn2c(-c3ccc(OCCC(C)C(=O)O)cc3Cl)nc3c(OC4(C)CC4)ncnc32)cccc1C(F)(F)F", "note": "(single isomer, unassigned) [Example T534, 4-(3-chloro-4-(9-(2-methyl-3-(trifluoromethyl)benzyl)-6-(1-methylcyclopropoxy)-9H-purin-8-yl)phenoxy)-2-methylbutanoic acid]", "values": [
      {"measurement": "IC50", "setting": "[1]", "result": 3160, "unit": "nM"}
    ]},
    {"smiles": "CC1(Oc2ncnc3c2nc(-c2ccc(CCCC(=O)O)cc2Cl)n3Cc2cccc(Cl)c2)CC1", "note": "[Example T155, 4-(3-chloro-4-(9-(3-chlorobenzyl)-6-(1-methylcyclopropoxy)-9H-purin-8-yl)phenyl)butanoic acid]", "values": [
      {"measurement": "IC50", "setting": "[1]", "result": 631, "unit": "nM"}
    ]},
    {"smiles": "CC1(Oc2ncnc3c2nc(-c2ccc(OCCN4C5CCC4CNC5)cc2Cl)n3Cc2ccccc2)CC1", "note": "[Example T605, 8-(4-(2-(3,8-diazabicyclo[3.2.1]octan-8-yl)ethoxy)-2-chlorophenyl)-9-benzyl-6-(1-methylcyclopropoxy)-9H-purine]", "values": [
      {"measurement": "IC50", "setting": "[2]", "result": 158, "unit": "nM"}
    ]},
    {"smiles": "Cc1ncsc1CCn1c(-c2ccc(CC(N)=O)cc2Cl)nc2c(OC3(C)CC3)ncnc21", "note": "[Example T26, 2-(3-chloro-4-(6-(1-methylcyclopropoxy)-9-(2-(4-methylthiazol-5-yl)ethyl)-9H-purin-8-yl)phenyl)acetamide]", "values": [
      {"measurement": "IC50", "setting": "[3]", "result": 316, "unit": "nM"}
    ]},
    {"smiles": "Cc1ccnc(Cn2c(-c3ccc(N4CCC4=O)cc3Cl)nc3c(OC4(C)CC4)ncnc32)c1", "note": "[Example T95, 1-(3-chloro-4-(6-(1-methylcyclopropoxy)-9-((4-methylpyridin-2-yl)methyl)-9H-purin-8-yl)phenyl)azetidin-2-one]", "values": [
      {"measurement": "IC50", "setting": "[3]", "result": 200, "unit": "nM"}
    ]},
    {"smiles": "Cc1ccnc(Cn2c(-c3ccc(NC(=O)N(C)C)cc3Cl)nc3c(OC4(C)CC4)ncnc32)c1", "note": "[Example T130, 3-(3-chloro-4-(6-(1-methylcyclopropoxy)-9-((4-methylpyridin-2-yl)methyl)-9H-purin-8-yl)phenyl)-1,1-dimethylurea]", "values": [
      {"measurement": "IC50", "setting": "[1]", "result": 501, "unit": "nM"}
    ]},
    {"smiles": "Cc1ccnc(Cn2c(-c3ccc(C(=O)N4CC(C)(O)C4)cc3Cl)nc3c(OC4(C)CC4)ncnc32)c1", "note": "[Example T314, (3-chloro-4-(6-(1-methylcyclopropoxy)-9-((4-methylpyridin-2-yl)methyl)-9H-purin-8-yl)phenyl)(3-hydroxy-3-methylazetidin-1-yl)methanone]", "values": [
      {"measurement": "IC50", "setting": "[4]", "result": 1260, "unit": "nM"}
    ]},
    {"smiles": "CCC(=O)N1CC(Oc2ccc(-c3nc4c(OC5(C)CC5)ncnc4n3Cc3cc(C)ccn3)c(Cl)c2)C1", "note": "[Example T471, 1-(3-(3-chloro-4-(6-(1-methylcyclopropoxy)-9-((4-methylpyridin-2-yl)methyl)-9H-purin-8-yl)phenoxy)azetidin-1-yl)propan-1-one]", "values": [
      {"measurement": "IC50", "setting": "[5]", "result": 158, "unit": "nM"}
    ]},
    {"smiles": "CC1NCCN(CCOc2ccc(-c3nc4c(OC5(C)CC5)ncnc4n3Cc3ccccc3)c(Cl)c2)C1=O", "note": "(single isomer, unassigned; isomer 2) [Example R14, 1-(2-(4-(9-benzyl-6-(1-methylcyclopropoxy)-9H-purin-8-yl)-3-chlorophenoxy)ethyl)-3-methylpiperazin-2-one (Isomer 2)]", "values": [
      {"measurement": "POLQ PD Prolif Lumin BRCA2 −/− mean pIC50", "setting": "DLD-1 BRCA2−/− cells, 12 days", "result": 6.8}
    ]},
    {"smiles": "Cc1ccnc(Cn2c(-c3ccc(OCC(=O)NCC(F)F)cc3Cl)nc3c(OC4(C)CC4)ncnc32)c1", "note": "[Example T166, 2-(3-chloro-4-(6-(1-methylcyclopropoxy)-9-((4-methylpyridin-2-yl)methyl)-9H-purin-8-yl)phenoxy)-N-(2,2-difluoroethyl)acetamide]", "values": [
      {"measurement": "IC50", "setting": "[1]", "result": 316, "unit": "nM"}
    ]},
    {"smiles": "CCOc1ccc(Cl)cc1Cn1c(-c2ccc(OCCC(C)C(=O)O)cc2Cl)nc2c(OC3(C)CC3)ncnc21", "note": "(racemic) [Example U59, 4-(3-chloro-4-(9-(5-chloro-2-ethoxybenzyl)-6-(1-methylcyclopropoxy)-9H-purin-8-yl)phenoxy)-2-methylbutanoic acid]", "values": [
      {"measurement": "IC50", "setting": "DLD-1, DLD-1 BRCA2 −/−, mean, read-out: POLQ PD Prolif Lumin BRCA2 −/− mean pIC50 (converted)", "result": 63.1, "unit": "nM"}
    ]},
    {"smiles": "CC1(Oc2ncnc3c2nc(-c2ccc(OCCNC(=O)CO)cc2Cl)n3Cc2ccccc2)CC1", "note": "[Example D26, N-(2-(4-(9-benzyl-6-(1-methylcyclopropoxy)-9H-purin-8-yl)-3-chlorophenoxy)ethyl)-2-hydroxyacetamide]", "values": [
      {"measurement": "IC50", "setting": "[6]", "result": 100, "unit": "nM"}
    ]},
    {"smiles": "Cc1ccnc(Cn2c(-c3ccc(C(=O)N4C[C@@H](O)[C@H](F)C4)cc3Cl)nc3c(OC4(C)CC4)ncnc32)c1", "note": "[Example T282, (3-chloro-4-(6-(1-methylcyclopropoxy)-9-((4-methylpyridin-2-yl)methyl)-9H-purin-8-yl)phenyl)((3R,4R)-3-fluoro-4-hydroxypyrrolidin-1-yl)methanone]", "values": [
      {"measurement": "IC50", "setting": "DLD-1, DLD-1 BRCA2-/- proliferation, column head only partly shown, read-out: POLQ PD Prolif Lumin (converted)", "result": 2510, "unit": "nM"}
    ]},
    {"smiles": "Cc1ccnc(Cn2c(-c3ccc(OC[C@H]4CNC(=O)O4)cc3Cl)nc3c(OC4(C)CC4)ncnc32)c1", "note": "[Example T188, (R)-5-((3-chloro-4-(6-(1-methylcyclopropoxy)-9-((4-methylpyridin-2-yl)methyl)-9H-purin-8-yl)phenoxy)methyl)oxazolidin-2-one]", "values": [
      {"measurement": "IC50", "setting": "[1]", "result": 501, "unit": "nM"}
    ]},
    {"smiles": "Cc1ccnc(Cn2c(-c3ccc(N4CCN5CCC[C@H]5C4)cc3Cl)nc3c(OC4(C)CC4)ncnc32)c1", "note": "[Example T585, (S)-8-(2-chloro-4-(hexahydropyrrolo[1,2-a]pyrazin-2(1H)-yl)phenyl)-6-(1-methylcyclopropoxy)-9-((4-methylpyridin-2-yl)methyl)-9H-purine]", "values": [
      {"measurement": "IC50", "setting": "[2]", "result": 200, "unit": "nM"}
    ]},
    {"smiles": "Cc1ccnc(Cn2c(-c3ccc(C(=O)NC(C)(C)CO)cc3Cl)nc3c(OC4(C)CC4)ncnc32)c1", "note": "[Example T362, 3-chloro-N-(1-hydroxy-2-methylpropan-2-yl)-4-(6-(1-methylcyclopropoxy)-9-((4-methylpyridin-2-yl)methyl)-9H-purin-8-yl)benzamide]", "values": [
      {"measurement": "IC50", "setting": "[4]", "result": 631, "unit": "nM"}
    ]},
    {"smiles": "CC1(Oc2ncnc3c2nc(-c2ccc(CC(N)=O)cc2Cl)n3Cc2cccc(C#N)c2)CC1", "note": "[Example T81, 2-(3-chloro-4-(9-(3-cyanobenzyl)-6-(1-methylcyclopropoxy)-9H-purin-8-yl)phenyl)acetamide]", "values": [
      {"measurement": "IC50", "setting": "[3]", "result": 200, "unit": "nM"}
    ]},
    {"smiles": "Cc1ccnc(Cn2c(-c3ccc(C(=O)NC4COC4)cc3Cl)nc3c(OC4(C)CC4)ncnc32)c1", "note": "[Example T177, 3-chloro-4-(6-(1-methylcyclopropoxy)-9-((4-methylpyridin-2-yl)methyl)-9H-purin-8-yl)-N-(oxetan-3-yl)benzamide]", "values": [
      {"measurement": "IC50", "setting": "[1]", "result": 1000, "unit": "nM"}
    ]},
    {"smiles": "Cc1cnc(Cn2c(-c3ccc(OCCN4CC(O)C4)cc3Cl)nc3c(OC4(C)CC4)ncnc32)s1", "note": "[Example T141, 1-(2-(3-chloro-4-(6-(1-methylcyclopropoxy)-9-((5-methylthiazol-2-yl)methyl)-9H-purin-8-yl)phenoxy)ethyl)azetidin-3-ol]", "values": [
      {"measurement": "IC50", "setting": "[1]", "result": 501, "unit": "nM"}
    ]},
    {"smiles": "CC(CCOc1ccc(-c2nc3c(OC4(C)CC4)ncnc3n2Cc2ccccc2C2CC2)c(Cl)c1)C(=O)O", "note": "(single isomer, unassigned) [Example T600, 4-(3-chloro-4-(9-(2-cyclopropylbenzyl)-6-(1-methylcyclopropoxy)-9H-purin-8-yl)phenoxy)-2-methylbutanoic acid]", "values": [
      {"measurement": "POLQ PD Prolif Lumin", "setting": "DLD-1 BRCA2-/-", "result": 6.3}
    ]},
    {"smiles": "CC1NCCN(CCOc2ccc(-c3nc4c(OC5(C)CC5)ncnc4n3Cc3ccccc3)c(Cl)c2)C1=O", "note": "(single isomer, unassigned; isomer 1) [Example R13, 1-(2-(4-(9-benzyl-6-(1-methylcyclopropoxy)-9H-purin-8-yl)-3-chlorophenoxy)ethyl)-3-methylpiperazin-2-one (Isomer 1)]", "values": [
      {"measurement": "IC50", "setting": "[6]", "result": 200, "unit": "nM"}
    ]},
    {"smiles": "Cc1ccnc(Cn2c(-c3ccc(C(=O)N4CCC[C@H](F)C4)cc3Cl)nc3c(OC4(C)CC4)ncnc32)c1", "note": "[Example T418, (S)-(3-chloro-4-(6-(1-methylcyclopropoxy)-9-((4-methylpyridin-2-yl)methyl)-9H-purin-8-yl)phenyl)(3-fluoropiperidin-1-yl)methanone]", "values": [
      {"measurement": "IC50", "setting": "[5]", "result": 631, "unit": "nM"}
    ]},
    {"smiles": "Cc1cc(Cn2c(-c3ccc(CC(N)=O)cc3Cl)nc3c(OC4(C)CC4)ncnc32)ccn1", "note": "[Example T58, 2-(3-chloro-4-(6-(1-methylcyclopropoxy)-9-((2-methylpyridin-4-yl)methyl)-9H-purin-8-yl)phenyl)acetamide]", "values": [
      {"measurement": "IC50", "setting": "[3]", "result": "> 10000", "unit": "nM"}
    ]},
    {"smiles": "CC1(Oc2ncnc3c2nc(-c2ccc(CC(N)=O)cc2Cl)n3Cc2ccc(C#N)cc2)CC1", "note": "[Example T83, 2-(3-chloro-4-(9-(4-cyanobenzyl)-6-(1-methylcyclopropoxy)-9H-purin-8-yl)phenyl)acetamide]", "values": [
      {"measurement": "IC50", "setting": "[3]", "result": 7940, "unit": "nM"}
    ]},
    {"smiles": "CC(CCOc1ccc(-c2nc3c(OC4(C)CC4)ncnc3n2Cc2cccc(C(F)F)c2)c(Cl)c1)C(=O)O", "note": "(single isomer, unassigned) [Example T412, 4-(3-chloro-4-(9-(3-(difluoromethyl)benzyl)-6-(1-methylcyclopropoxy)-9H-purin-8-yl)phenoxy)-2-methylbutanoic acid]", "values": [
      {"measurement": "IC50", "setting": "[5]", "result": 251, "unit": "nM"}
    ]},
    {"smiles": "CC1(Oc2cccc3c2nc(-c2ccc(OCCN4CCNCC4)cc2Cl)n3Cc2cccc(Cl)c2)CCC1", "note": "[Example T611, 2-(2-chloro-4-(2-(piperazin-1-yl)ethoxy)phenyl)-1-(3-chlorobenzyl)-4-(1-methylcyclobutoxy)-1H-benzo[d]imidazole]", "values": [
      {"measurement": "IC50", "setting": "[2]", "result": 316, "unit": "nM"}
    ]},
    {"smiles": "Cc1ccc(Cn2c(-c3ccc(CC(N)=O)cc3Cl)nc3c(OC4(C)CC4)ncnc32)cc1", "note": "[Example T100, 2-(3-chloro-4-(9-(4-methylbenzyl)-6-(1-methylcyclopropoxy)-9H-purin-8-yl)phenyl)acetamide]", "values": [
      {"measurement": "IC50", "setting": "[3]", "result": 794, "unit": "nM"}
    ]},
    {"smiles": "CC1(Oc2ncnc3c2nc(-c2ccc(O[C@H]4CC[C@H](C(=O)O)CC4)cc2Cl)n3Cc2ccccc2C#N)CC1", "note": "[Example U19, (1r,4r)-4-(3-chloro-4-(9-(2-cyanobenzyl)-6-(1-methylcyclopropoxy)-9H-purin-8-yl)phenoxy)cyclohexane-1-carboxylic acid]", "values": [
      {"measurement": "POLQ PD Prolif Lumin BRCA2 −/− mean pIC50", "setting": "DLD-1 BRCA2 −/−, mean", "result": 6.6}
    ]}
  ]
}
